Reference: PubChem BioAssay (NCI)
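Cells were grown in 96-well plates and exposed to each compound for 48 hours at five concentrations; endpoints were interpolated linearly between bracketing concentrations, or set to the highest concentration if not reached. At the GI50, growth is halved. The concentration for full growth arrest is given as TGI.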

Columns and labels:
Experiment in all cases: DTP human tumour cell line panel, 48 h
[1] = tested on: 786-0 renal
[2] = tested on: A498 renal
[3] = tested on: A549 NSCLC
[4] = tested on: ACHN renal
[5] = tested on: BT-549 breast
[6] = tested on: CAKI-1 renal
[7] = tested on: COLO 205 colon
[8] = tested on: DU-145 prostate
[9] = tested on: EKVX NSCLC
[10] = tested on: HCT-116 colon
[11] = tested on: HCT-15 colon
[12] = tested on: HL-60(TB) leukemia
[13] = tested on: HOP-62 NSCLC
[14] = tested on: HOP-92 NSCLC
[15] = tested on: HS 578T breast
[16] = tested on: HT29 colon
[17] = tested on: IGROV1 ovarian
[18] = tested on: K-562 leukemia
[19] = tested on: KM12 colon
[20] = tested on: LOX IMVI melanoma
[21] = tested on: M14 melanoma
[22] = tested on: MCF7 breast
[23] = tested on: MDA-MB-231 breast
[24] = tested on: MDA-MB-435
[25] = tested on: MOLT-4 leukemia
[26] = tested on: NCI-H226 lung
[27] = tested on: NCI-H23 lung
[28] = tested on: NCI-H460 lung
[29] = tested on: NCI-H522 lung
[30] = tested on: NCI/ADR-RES ovarian
[31] = tested on: OVCAR-3 ovarian
[32] = tested on: OVCAR-4 ovarian
[33] = tested on: OVCAR-5 ovarian
[34] = tested on: OVCAR-8 ovarian
[35] = tested on: PC-3 prostate
[36] = tested on: RPMI-8226 leukemia
[37] = tested on: RXF 393 renal
[38] = tested on: SF-268 CNS
[39] = tested on: SF-295 CNS
[40] = tested on: SF-539 CNS
[41] = tested on: SK-MEL-2 melanoma
[42] = tested on: SK-MEL-28 melanoma
[43] = tested on: SK-MEL-5 melanoma
[44] = tested on: SK-OV-3 ovarian
[45] = tested on: SN12C renal
[46] = tested on: SNB-19 CNS
[47] = tested on: SNB-75 CNS
[48] = tested on: SR leukemia
[49] = tested on: SW-620 colon
[50] = tested on: TK-10 renal
[51] = tested on: U251 CNS
[52] = tested on: UACC-257 melanoma
[53] = tested on: UACC-62 melanoma
[54] = tested on: UO-31 renal

SMILES: CC1(C)Cc2cccc(OCC(O)CN3CCN(c4ccc(F)cc4)CC3)c2O1 (stereo not drawn)
- GI50 [1]: 5.66 µM
- TGI [1]: 15.7 µM
- GI50 [2]: 14 µM
- TGI [2]: 35.1 µM
- GI50 [3]: 19.4 µM
- TGI [3]: > 50 µM
- GI50 [4]: 9.65 µM
- TGI [4]: 25 µM
- GI50 [5]: 17.3 µM
- TGI [5]: 39.8 µM
- GI50 [6]: 15.8 µM
- TGI [6]: 37.7 µM
- GI50 [7]: 11.1 µM
- TGI [7]: 26.9 µM
- GI50 [8]: 24.1 µM
- TGI [8]: > 50 µM
- GI50 [9]: 25 µM
- TGI [9]: > 50 µM
- GI50 [10]: 7.34 µM
- TGI [10]: 15 µM
- GI50 [11]: 13.5 µM
- TGI [11]: > 50 µM
- GI50 [12]: 16.4 µM
- TGI [12]: > 50 µM
- GI50 [13]: 21.9 µM
- TGI [13]: > 50 µM
- GI50 [14]: 8.15 µM
- TGI [14]: 31.4 µM
- GI50 [15]: 10.4 µM
- TGI [15]: 31.3 µM
- GI50 [16]: 7.87 µM
- TGI [16]: 17.2 µM
- GI50 [17]: 20 µM
- TGI [17]: > 50 µM
- GI50 [18]: 16.6 µM
- TGI [18]: > 50 µM
- GI50 [19]: 15.3 µM
- TGI [19]: > 50 µM
- GI50 [20]: 23.8 µM
- TGI [20]: > 50 µM
- GI50 [21]: 7.37 µM
- TGI [21]: 15.1 µM
- GI50 [22]: 13.4 µM
- TGI [22]: 49.7 µM
- GI50 [23]: 8.58 µM
- TGI [23]: 36 µM
- GI50 [24]: 10.5 µM
- TGI [24]: 25.7 µM
- GI50 [25]: 20.2 µM
- TGI [25]: > 50 µM
- GI50 [26]: 17.1 µM
- TGI [26]: > 50 µM
- GI50 [27]: 19.1 µM
- TGI [27]: > 50 µM
- GI50 [28]: 15.3 µM
- TGI [28]: > 50 µM
- GI50 [29]: 47.8 µM
- TGI [29]: > 50 µM
- GI50 [30]: 12.2 µM
- TGI [30]: 45.6 µM
- GI50 [31]: 22.9 µM
- TGI [31]: > 50 µM
- GI50 [32]: 13.3 µM
- TGI [32]: > 50 µM
- GI50 [33]: 22.1 µM
- TGI [33]: > 50 µM
- GI50 [34]: 18.2 µM
- TGI [34]: > 50 µM
- GI50 [35]: 14 µM
- TGI [35]: > 50 µM
- GI50 [36]: 9.18 µM
- TGI [36]: 26.2 µM
- GI50 [37]: 8.33 µM
- TGI [37]: 22.6 µM
- GI50 [38]: 18 µM
- TGI [38]: > 50 µM
- GI50 [39]: 8.83 µM
- TGI [39]: 39.9 µM
- GI50 [40]: 13 µM
- TGI [40]: 27.3 µM
- GI50 [41]: 27 µM
- TGI [41]: > 50 µM
- GI50 [42]: 19.1 µM
- TGI [42]: > 50 µM
- GI50 [43]: 6.99 µM
- TGI [43]: 13.9 µM
- GI50 [44]: 23.2 µM
- TGI [44]: > 50 µM
- GI50 [45]: 18.9 µM
- TGI [45]: > 50 µM
- GI50 [46]: 31.7 µM
- TGI [46]: > 50 µM
- GI50 [47]: 10.9 µM
- TGI [47]: 34.2 µM
- GI50 [48]: 13.4 µM
- TGI [48]: > 50 µM
- GI50 [49]: 14.3 µM
- TGI [49]: > 50 µM
- GI50 [50]: > 50 µM
- TGI [50]: > 50 µM
- GI50 [51]: 12.8 µM
- TGI [51]: 39.8 µM
- GI50 [52]: 6.34 µM
- TGI [52]: 16.9 µM
- GI50 [53]: 11.6 µM
- TGI [53]: > 50 µM
- GI50 [54]: 13.5 µM
- TGI [54]: > 50 µM
